From US9283224B2, “Substituted pyrimidinyl-pyrroles active as kinase inhibitors” (NERVIANO MEDICAL SCIENCES S.R.L., priority 2012, dated 2016)
Like-named read-outs stand apart in the source and are kept apart here.

Columns and labels:
[1] = target: T1, JAK2 kinase domain (Homo sapiens, UniProt O60674); test: Biochemical assay for inhibitors of JAK2 kinase activity (33P-γ-ATP, dowex resin); settings: 1 nM enzyme, 60 μM ATP, 60 minutes at room temperature
T1 construct: commercially available JAK2 kinase domain (Invitrogen, Eugene, Oreg.); purchased Invitrogen, Eugene, Oreg
Procedure: Specific JAK2, JAK1 or JAK3 peptide substrates are trans-phosphorylated by JAK kinases in the presence of ATP traced with 33P-γ-ATP. At the end of the phosphorylation reaction, the unreacted ATP, cold and radioactive, is captured by an excess of dowex ion exchange resin that eventually settles by gravity to the bottom of the reaction plate. The supernatant is subsequently withdrawn and transferred into a counting plate that is then evaluated by β-counting.
500 g of wet resin (SIGMA, custom prepared resin DOWEX 1×8 200-400 mesh, 2.5 Kg) is weighed out and diluted 2 to 1 in 150 mM sodium formate, pH 3.00. The resin is allowed to settle overnight and then the supernatant is discarded. After three washes as above over a couple of days, the resin is allowed to settle and two volumes (with respect to the resin volume) of 150 mM sodium formate buffer are added.
Kinase buffer was composed of 50 mM HEPES pH 7.5 containing 10 mM MgCl2, 2.5 mM DTT, 10 μM Na3VO4 and 0.2 mg/mL BSA.
The peptidic substrate was purchased from American Peptide Company (Sunnyvale, Calif.).
An automated station for serial dilutions (Biomek FX, Beckman) is used for producing 1:3 dilutions in 100% DMSO, from line A1 to A10, and for all the compounds in the column.
At the start of the run, the robot aspirates 5 μL of ATP mix, makes an air gap inside the tips (3 μl) and aspirates 5 μL of JAK2 mix. The following dispensation into the plates plus 3 cycles of mixing, done by the robot itself, starts the kinase reaction. At this point, the correct concentrations are restored for all the reagents. The robot incubates the plates for 60 minutes at room temperature, and then stops the reaction by pipetting 60 μL of dowex resin suspension into the reaction mix. In order to avoid tip clogging, wide bore tips are used to dispense the resin suspension. Three cycles of mixing are done immediately after the addition of the resin. Another mixing cycle is performed after all the plates are stopped, this time using normal tips: the plates are then allowed to rest for about one hour in order to allow resin sedimentation. At this point, 27 μL of the supernatant are transferred into 384-Optiplates (Perkin-Elmer), with 50 μL of Microscint 40 (Perkin-Elmer); after 5 min of orbital shaking the plates are read on a Perkin-Elmer Top Count radioactivity counter.
Data are analyzed by an internally customized version of the SW package “Assay Explorer” that provides sigmoidal fitting of the ten-dilutions curves for IC50 determination in the secondary assays/hit confirmation routines.

[2] = test system: JAK2 dependent human megakaryoblastic leukemia cell line SET-2; test: Cell proliferation assay (CellTiter-Glo, 72 hours), SET-2; assay type: cell-based; settings: for IC50: Homo sapiens, read-out: SET-2 IC50; for Ratio K-562 (IC50)/SET-2 (IC50): selectivity for JAK2 dependent SET-2 vs JAK2 independent K-562 cell line
Procedure: (§1) the JAK2 dependent human megakaryoblastic leukemia cell line SET-2 (DSMZ, Braunschweig GERMANY), and JAK2 independent human chronic myelogenous leukaemia cell line K562 (ECACC, Wiltshire, UK) were cultured in RPMI-1640 medium-Glutamax (Gibco BRL, Gaithesburg, Md., USA), supplemented with 10% fetal bovine serum (FBS) at 37° C. and 5% CO2.
(§2) Approximately 5×10^3 cells were plated into 384 microtiter plate wells in 50 μL of growth media with different concentrations of inhibitors. The cells were incubated at 37° C. and 5% CO2 for 72 hours, than the plates were processed using CellTiter-Glo assay (Promega, Madison, Wis., USA) following the manufacturer's instruction. Briefly 25 μL/well reagent solution are added to each wells and after 5 minutes shacking micro-plates are read by Envision luminometer (PerkinElmer, Waltham, Mass., USA).
(§3) Data are analyzed by Symix Assay Explorer software (Symix Technologies Inc.) that provides sigmoidal fitting algorithm of the 8 points dilutions curves for […] determination.

[3] = test system: JAK2 independent human chronic myelogenous leukaemia cell line K562; test: Cell proliferation assay (CellTiter-Glo, 72 hours), K562; assay type: cell-based; settings: K562 cells, read-out: K-562 IC50
Procedure: as §1, §2, §3

T1 sequence (O60674 849-1124 limits assumed): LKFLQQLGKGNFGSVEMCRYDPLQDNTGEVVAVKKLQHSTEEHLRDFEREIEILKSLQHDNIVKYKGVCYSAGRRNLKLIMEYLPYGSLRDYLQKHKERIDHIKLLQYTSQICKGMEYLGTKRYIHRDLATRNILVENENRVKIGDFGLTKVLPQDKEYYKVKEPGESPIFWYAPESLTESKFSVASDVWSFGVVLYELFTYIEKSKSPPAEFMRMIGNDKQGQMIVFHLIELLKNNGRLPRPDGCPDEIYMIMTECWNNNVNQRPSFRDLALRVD

IC50 ([2]; SET-2 cells, 72 hours) [nM]	Ratio K-562 (IC50)/SET-2 (IC50) [2]	Structure (SMILES)	IC50 [1] [nM]	IC50 [3] [nM]	IC50 ([2]; SET-2, 72 h) [nM]
310	>20	CCc1ccc(C(F)(F)F)cc1-c1[nH]c(-c2ccnc(N)n2)cc1C(=O)NC [Cmpd. 51, 5-(2-Aminopyrimidin-4-yl)-2-[2-ethyl-5-(trifluoromethyl)phenyl]-N-methyl-1H-pyrrole-3-carboxamide]	2	> 10000	–
490	>20	CCc1ccc(Cl)cc1-c1[nH]c(-c2ccnc(N)n2)cc1C(=O)NC [Cmpd. 35, 5-(2-Aminopyrimidin-4-yl)-2-(5-chloro-2-ethylphenyl)-N-methyl-1H-pyrrole-3-carboxamide]	9	> 10000	–
–	–	CCc1ccc(Cl)cc1-c1[nH]c(-c2ccnc(N)n2)cc1C(N)=O [Cmpd. 5, 5-(2-Aminopyrimidin-4-yl)-2-(5-chloro-2-ethylphenyl)-1H-pyrrole-3-carboxamide]	–	5320	210
630	>16	CNC(=O)c1cc(-c2ccnc(N)n2)[nH]c1-c1cc(C(F)(F)F)ccc1Cl [Cmpd. 39, 5-(2-Aminopyrimidin-4-yl)-2-[2-chloro-5-(trifluoromethyl)phenyl]-N-methyl-1H-pyrrole-3-carboxamide]	–	> 10000	–
–	–	CNc1nccc(-c2cc(C(N)=O)c(-c3cc(Cl)ccc3C)[nH]2)n1 [Cmpd. 42, 2-(5-Chloro-2-methylphenyl)-5-[2-(methylamino)pyrimidin-4-yl]-1H-pyrrole-3-carboxamide]	–	> 10000	–
610	>16	CCNC(=O)c1cc(-c2ccnc(N)n2)[nH]c1-c1cc(Cl)ccc1CC [Cmpd. 36, 5-(2-Aminopyrimidin-4-yl)-2-(5-chloro-2-ethylphenyl)-N-ethyl-1H-pyrrole-3-carboxamide]	13	> 10000	–
–	–	Cc1ccc(Cl)cc1-c1[nH]c(-c2ccnc(N)n2)cc1C(N)=O [Ref. cmpd. (F25), 5-(2-amino-pyrimidin-4-yl)-2-(5-chloro-2-methyl-phenyl)-1H-pyrrole-3-carboxamide, reference compound]	–	2000	430

Structure (SMILES)	IC50 ([2]; SET-2 cells, 72 hours) [nM]	Ratio K-562 (IC50)/SET-2 (IC50) [2]	IC50 [1] [nM]	IC50 [3] [nM]	IC50 ([2]; SET-2, 72 h) [nM]
NC(=O)c1cc(-c2ccnc(N)n2)[nH]c1-c1cc(Cl)ccc1Cl [Cmpd. 2, 5-(2-Aminopyrimidin-4-yl)-2-(2,5-dichlorophenyl)-1H-pyrrole-3-carboxamide]	700	9.8	12	6860	–
CCc1ccc(C(F)(F)F)cc1-c1[nH]c(-c2ccnc(N)n2)cc1C(N)=O [Cmpd. 16, 5-(2-Aminopyrimidin-4-yl)-2-[2-ethyl-5-(trifluoromethyl)phenyl]-1H-pyrrole-3-carboxamide]	390	9.43	2	3680	–
NC(=O)c1cc(-c2ccnc(N)n2)[nH]c1-c1cc(C(F)(F)F)ccc1Cl [Cmpd. 1, 5-(2-Aminopyrimidin-4-yl)-2-[2-chloro-5-(trifluoromethyl)phenyl]-1H-pyrrole-3-carboxamide]	570	13	8	7500	–
